Laboratory results reported in patent publication US5401514A, “Solid, fast-soluble pharmaceutical preparation containing S-(carboxymethyl)-L-cysteine and/or N-acetylcysteine” (Spirig AG, Pharmazeutische Praeparate, priority 1990, dated 1995).

Tests used:
[1] = background knowledge; cited from earlier work
[2] = Comparative bioavailability test in 10 subjects, plasma N-acetylcysteine by HPLC (tributyl phosphine reduction, o-phthalaldehyde post-column derivatization), oral 200 mg
Text: A process for quantitative determination of N-acetylcysteine in plasma was used, which split the active ingredient with tributyl phosphine reductively and derivatized in with a post-HPLC column using o-phthalaldehyde.
The comparative test is documented in Biopharmaceutics & Drug Disposition, Vol. 12, 343-353 (1991).

SMILES	main effect [1]	tolerability [1]	endogenous average concentrations in plasma ([2]; human, in vivo)	Cmax relative to endogenous plasma values ([2]; one 200 mg dose, oral, up to)
CC(=O)N[C@@H](CS)C(=O)O [N-acetylcysteine]	expectorant	very well tolerated	0.08 µM	up to 20 times
N[C@@H](CSCC(=O)O)C(=O)O [carbocysteine, S-(carboxymethyl)-L-cysteine]	expectorant	very well tolerated	–	–
